From patent US20240041764A1, “Sustained-Release Oral Fosamprenavir Formulation for Treatment of Reflux” (The Medical College of Wisconsin, Inc., priority 2022, published 2024)
Entries after “also recorded” stand apart in the source; their conditions may differ. Square brackets hold non-standard residues; d marks the D form. Peptide text beside a SMILES is read from it. * marks the point of attachment. Sta = CC(C)C[C@H](N)[C@@H](O)CC(=O)O; Isovaleryl = CC(C)CC(=O)*

Legend:
porcine pepsin A = molecular target: T1, porcine pepsin A (Sus scrofa, UniProt P00791); assay: competitive binding assay, fluorescence polarization with pepstatin-Alexa647; settings: 100 nM probe, 0.03 U/ul porcine pepsin A, 37.5% DMSO, 0.1 M HCl pH 1
T1 construct: purchased Worthington Biochemical Corporation
Description: To examine whether HIV protease inhibitors bound and inhibited pepsin, we developed assays based on fluorescence polarization which measures size-dependent molecular rotation thereby permitting detection of degradation, association and dissociation events^80. A competitive binding assay was designed employing pepstatin, an inhibitor of sub-nanomolar affinity^81. Pepstatin-Alexa647 was synthesized by dissolving 1 mg pepstatin A (Sigma-Aldrich) in a 50:50 mixture of dimethylformamide (DMF) and dimethylsulfoxide (DMS) followed by the addition of N,N,N′,N′-Tetramethyl-O—(N-succinimidyl)uronium tetrafluoroborate (0.6 mg) and trimethylamine (10 μL) DMF. The mixture was stirred for 1 hour, after which 1 mg Alexa Fluor 647 Cadaverine, Disodium Salt (ThermoFisher Scientific) was added. After 2 hours, the solvents were evaporated under high vacuum (35° C.) and residue partially dissolved in 10% methanol and transferred onto a C18 cartridge (Waters Corporation, Milford, MA). Increasing percentages of methanol were used for the elution. Pepstatin-Alexa647 eluted at 45% methanol. An enzymatic inhibition assay was designed using casein substrate.^82 Bovine alpha casein (Sigma-Aldrich, St. Louis, MO) was labeled with Alexa Fluor 647 Carboxylic Acid, Succinimidyl Ester (ThermoFisher Scientific, Waltham, MA) as described.^82 Briefly, the two were combined at 2.5 ug/mg label to protein ratio in 0.1M sodium bicarbonate for 15 minutes and labeled casein was separated from unbound label in a Sephadex G-25 (Sigma-Aldrich) column comprised of 90×5 mm packed beads in a glass Pasteur pipette, eluted with dPBS pH7.4 (ThermoFisher Scientific). The fast-moving band (casein-bound fluorophore) was collected in ˜0.4 ml volume. […]
(§1) Assays were optimized using ranges of 0.3-1000 μM unlabeled pepstatin, 100-500 nM pepstatin-Alexa647 or casein-Alexa647 probe, 0.003-3 U/μl porcine pepsin (Worthington Biochemical Corporation, Lakewood, NJ), and 5-37.5% DMSO (HIV protease inhibitor diluent) in 0.1 M HCl, pH 1 with 0.01% v/v Tween-20 in 20 μl volumes in 384-well black optical plates (Nunc, Roskilde, DK) and read on a BioTek Cytation 5 (BioTek Instruments, Winooski, VT) with far red FP filter cube (excitation/emission 620/680 nm). […] Assays were performed twice with triplicate reactions read for five minutes and mean mP plotted against probe concentration (binding assay) or read at <2 minutes intervals over 30 minutes with mean mP of plotted over time (activity assay). Half maximal inhibitory concentration (IC50) of inhibitors were calculated from kinetic traces analyzed using an online tool (https://icekat.herokuapp.com/icekat)^83. mP was normalized to blank (absent inhibitor) to derive percent bound or activity.

porcine pepsin = molecular target: T2, porcine pepsin (Sus scrofa, UniProt P00791); assay: peptic activity assay, fluorescence polarization with casein-Alexa647; format: biochemical; settings: for inhibited pepsin (peptic activity): 200 nM probe, 0.01 U/μL pepsin, 5% DMSO, 0.1 M HCl pH 1
T2 construct: purchased Worthington Biochemical Corporation
Description: To examine whether HIV protease inhibitors bound and inhibited pepsin, we developed assays based on fluorescence polarization which measures size-dependent molecular rotation thereby permitting detection of degradation, association and dissociation events^80. A competitive binding assay was designed employing pepstatin, an inhibitor of sub-nanomolar affinity^81. Pepstatin-Alexa647 was synthesized by dissolving 1 mg pepstatin A (Sigma-Aldrich) in a 50:50 mixture of dimethylformamide (DMF) and dimethylsulfoxide (DMS) followed by the addition of N,N,N′,N′-Tetramethyl-O—(N-succinimidyl)uronium tetrafluoroborate (0.6 mg) and trimethylamine (10 μL) DMF. The mixture was stirred for 1 hour, after which 1 mg Alexa Fluor 647 Cadaverine, Disodium Salt (ThermoFisher Scientific) was added. After 2 hours, the solvents were evaporated under high vacuum (35° C.) and residue partially dissolved in 10% methanol and transferred onto a C18 cartridge (Waters Corporation, Milford, MA). Increasing percentages of methanol were used for the elution. […] An enzymatic inhibition assay was designed using casein substrate.^82 Bovine alpha casein (Sigma-Aldrich, St. Louis, MO) was labeled with Alexa Fluor 647 Carboxylic Acid, Succinimidyl Ester (ThermoFisher Scientific, Waltham, MA) as described.^82 Briefly, the two were combined at 2.5 ug/mg label to protein ratio in 0.1M sodium bicarbonate for 15 minutes and labeled casein was separated from unbound label in a Sephadex G-25 (Sigma-Aldrich) column comprised of 90×5 mm packed beads in a glass Pasteur pipette, eluted with dPBS pH7.4 (ThermoFisher Scientific). The fast-moving band (casein-bound fluorophore) was collected in ˜0.4 ml volume. Concentration of resultant probe (casein-Alexa647 in PBS-azide) was estimated via spectrophotometry using Beer's law (Implen Nanophotometer, Implen, Inc. Westlake Village, CA).
as §1, with “nm). Unlabeled pepstatin dose-response curves were used to ensure that the assays were responsive to pepsin inhibition.” for “nm).”

[1] = in vivo; cited from earlier work
pepsin [2] = settings: cited from earlier work
[3] = system: patients with HEMII-pH testing-confirmed alkaline LPR; settings: thrice daily post meal with anti-reflux diet; n=48; cited from earlier work
[4] = cited from earlier work
pepsin [5] = settings: cited from earlier work; remark: listed apart in the source

T2 sequence (P00791 60-385): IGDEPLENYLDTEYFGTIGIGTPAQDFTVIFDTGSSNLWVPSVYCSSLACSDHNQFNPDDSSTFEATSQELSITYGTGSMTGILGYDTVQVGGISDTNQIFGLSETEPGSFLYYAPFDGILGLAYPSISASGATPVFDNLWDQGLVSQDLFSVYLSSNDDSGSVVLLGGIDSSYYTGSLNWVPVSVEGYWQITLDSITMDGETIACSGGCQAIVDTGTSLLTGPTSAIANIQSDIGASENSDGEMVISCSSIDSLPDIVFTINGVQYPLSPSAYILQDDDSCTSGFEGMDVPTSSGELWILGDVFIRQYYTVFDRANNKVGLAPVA
T1 sequence (P00791 60-385): as above

Molecule	bound pepsin (competitive binding) (porcine pepsin A)	inhibited pepsin (peptic activity) (porcine pepsin)	side effects [1]	effect on pepsin-mediated damage and inflammation (pepsin [2])	further results
CC(C)CN(C[C@@H](O)[C@H](Cc1ccccc1)NC(=O)O[C@H]1CCOC1)S(=O)(=O)c1ccc(N)cc1 [amprenavir, [(3S)-oxolan-3-yl] N-[(2S,3R)-4-[(4-aminophenyl)sulfonyl-(2-methylpropyl)amino]-3-hydroxy-1-phenylbutan-2-yl]carbamate]	low micromolar	low micromolar	minimal side effects (diarrhea, nausea and vomiting)		IC50 for pepsin (porcine pepsin; in vitro binding and inhibition assays, IC50 from kinetic traces): low micromolar range
CC(C)c1cc2c(cc1S(=O)(=O)O)[C@@]1(C)CCC[C@@](C)(C(=O)O)[C@@H]1CC2 [ecabet sodium]				abrogate this damage and inflammation	
O.O=S(=O)([O-])[O-].O=S(=O)([O-])[O-].[Al+3].[Al+3].[Al+3].[Al+3].[Al+3].[Mg+2].[Mg+2].[Mg+2].[Mg+2].[Mg+2].[Mg+2].[Mg+2].[Mg+2].[Mg+2].[Mg+2].[OH-].[OH-].[OH-].[OH-].[OH-].[OH-].[OH-].[OH-].[OH-].[OH-].[OH-].[OH-].[OH-].[OH-].[OH-].[OH-].[OH-].[OH-].[OH-].[OH-].[OH-].[OH-].[OH-].[OH-].[OH-].[OH-].[OH-].[OH-].[OH-].[OH-].[OH-] [magaldrate]					voice quality (GRBAS dysphonia and roughness, jitter, shimmer, noise to harmonic ratio) [3]: improved voice quality
CC(C)CC(=O)N[C@H](C(=O)N[C@H](C(=O)N[C@@H](CC(C)C)[C@@H](O)CC(=O)N[C@@H](C)C(=O)N[C@@H](CC(C)C)[C@@H](O)CC(=O)O)C(C)C)C(C)C [pepstatin] (Isovaleryl-VV[Sta]A[Sta]-OH)				abrogate this damage and inflammation	water solubility [4]: poor water-solubility; also recorded: poor water-soluble characteristics; affinity / potency as pepsin inhibitor (pepsin [5]): potent pepsin inhibitor; also recorded: sub-nanomolar
CC(C)c1nc(CN(C)C(=O)N[C@H](C(=O)N[C@@H](Cc2ccccc2)C[C@H](O)[C@H](Cc2ccccc2)NC(=O)OCc2cncs2)C(C)C)cs1 [ritonavir, 1,3-thiazol-5-ylmethyl N-[(2S,3S,5S)-3-hydroxy-5-[[(2S)-3-methyl-2-[[methyl-[(2-propan-2-yl-1,3-thiazol-4-yl)methyl]carbamoyl]amino]butanoyl]amino]-1,6-diphenylhexan-2-yl]carbamate]	low micromolar	low micromolar	minimal side effects (diarrhea, nausea and vomiting)		
anthocyanin				abrogate this damage and inflammation	
